Among the data in US20260234161A1, “RIFABUTIN ANALOGS FOR THE TREATMENT OF BACTERIAL DISEASES” (BIOVERSYS AG, priority 2023, published 2026) are MIC values, retold here.

Each structure is given as a SMILES string. Converted amounts (≈) assume the structure as drawn.

What all share (assay type): cell-based
The test system of assay [1] is S. aureus (UAMS-1625 strain). Kind of assay: MIC by broth microdilution, S. aureus. Conditions: Staphylococcus aureus, 20 h, read-out: MIC S. aureus. The essentials: (§1)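 CLSI broth microdilution in cation-adjusted Mueller Hinton broth, 5×10^5 CFU/mL inoculum; ADC (5%) added for M. avium and M. xenopi (M. xenopi inoculum from 7H9+ADC liquid culture). Two-fold series 16–0.016 μg/mL (M. abscessus, M. avium), 1–6×10^−5 μg/mL (M. xenopi); S. aureus 35° C 20 h, M. abscessus 30° C 4 days, others 37° C ≥7 days; MIC = lowest concentration without visible growth.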

The subject of assay [2] is A. baumannii (HUMC1 strain). Kind of assay: MIC by broth microdilution, A. baumannii (RPMI + 10% FCS). Conditions: Acinetobacter baumannii; HUMC1 strain; RPMI medium + 10% FCS; 35° C., 20 hours; read-out: MIC A. baumannii. On the technique in general: Broth dilution looks for growth in wells or tubes with falling amounts of substance.
In assay [3] the test system is M. abscessus (ATCC 19977). Kind of assay: MIC by broth microdilution, M. abscessus in Middlebrook 7H9 broth + ADC. Conditions: Mycobacteroides abscessus, ATCC19977, 96 h; ATCC 19977; Middlebrook 7H9 broth + ADC growth supplement (10%); 30° C., 4 days; read-out: MIC M. abscessus 7H9. The procedure:
(§2) MIC values were determined by broth microdilution method according to the CLSI guidelines with the following exceptions: MIC against A. baumannii was performed in RPMI medium supplemented with 10% FCS and MIC against M. abscessus was performed in Middlebrook 7H9 broth supplemented with Middlebrook ADC growth supplement (10%; see column “M. abscessus 7H9”). MIC forM abscessus was determined a second time in standard cation adjusted Mueller Hinton broth without growth supplement (see colum “M. abscessus MH”). All other MIC were performed in standard cation adjusted Mueller Hinton broth, supplemented with Middlebrook ADC growth supplement (5%) for the slow growing mycobacteria (M. xenopi, M. kansasii and M. avium).
(§3) The following procedure applies to all species tested, except forM xenopi. From a fresh culture plate (from overnight to several days depending on the bacteria), cells were resuspended in 0.9% (w/v) saline solution and bacterial inoculum was prepared in the respective testing medium with 5×10^5 CFU/mL. For M. xenopi, the inoculum was prepared from a fresh liquid culture (7H9+ADC). The appropriate volumes of a 10 mg/mL compound solution were directly dispensed in the 96-well assay plate using a digital dispenser to create two-fold dilution series from 32 to 0.002 μg/mL final concentration for A. baumannii and S. aureus; from 16 to 0.016 μg/mL for M. abscessus and M. avium; and from 1 to 6×10^−5 μg/mL for M. kansasii and M. xenopi. 100 μL of bacterial suspension was finally added to the compounds. Plates were covered and incubated without shaking at 35° C. for 20 hours for A. baumanii and S. aureus; at 30° C. for 4 days for M. abscessus; and at 37° C. for 7 days (at least) for M. kansasii (covered with aluminum foil to avoid light exposure), M. avium and M. xenopi. Every experiment contained an antibiotic as quality control. MIC was determined visually as the lowest concentration of a compound that prevents visible growth of the bacteria.
(§4) The in vitro activity of compounds described herein was determined against S. aureus (UAMS-1625 strain), A. baumannii (HUMC1 strain), M. abscessus (ATCC 19977), M. kansasii (ATCC 12478), M. avium (ATCC 25291), and M. xenopi (ATCC 19250).

For assay [4], the system named is M. abscessus (ATCC 19977). Kind of assay: MIC by broth microdilution, M. abscessus in cation adjusted Mueller Hinton broth. As to conditions: Mycobacteroides abscessus, ATCC19977, 96 h; ATCC 19977; cation adjusted Mueller Hinton broth without growth supplement; 30° C., 4 days; read-out: MIC M. abscessus MH. The essentials: as §1
The test system of a further assay is M. kansasii (ATCC 12478). Kind of assay: MIC by broth microdilution, M. kansasii. As to conditions: Mycobacterium kansasii, ATCC12478, 168 h, cation adjusted Mueller Hinton broth + ADC (5%), 37° C., 7 days (at least). As to the method:
as §2, §3, §4

A further assay deals with M. xenopi (ATCC 19250). Kind of assay: MIC by broth microdilution, M. xenopi. Conditions: Mycobacterium xenopi, ATCC19250, 168 h, cation adjusted Mueller Hinton broth + ADC (5%), 37° C., 7 days (at least). The procedure:
as §2, §3, §4

The subject of another assay is M. avium (ATCC 25291). Description: MIC by broth microdilution, M. avium. As to conditions: Mycobacterium avium, ATCC25291, 168 h, cation adjusted Mueller Hinton broth + ADC (5%), 37° C., 7 days (at least). As to the method: as §2, §3, §4

The MIC is the least concentration at which growth counts as inhibited. `CO[C@H]1/C=C/O[C@@]2(C)Oc3c(C)c(O)c4c(c3C2=O)C2=NC3(CCN(CC(C)C)CC3)NC2=C(NC(=O)/C(C)=C\C=C\[C@H](C)[C@H](O)[C@@H](C)[C@@H](O)[C@@H](C)[C@H](OC(=O)N2CCN(c3ccccn3)CC2)[C@@H]1C)C4=O` [Compound 8]: the minimal inhibitory concentration (MIC) in assay [1] is 0.25 µg/mL (≈ 0.251 µM); in assay [2], 0.25 µg/mL; in assay [3], 0.125 µg/mL; in assay [4], 0.5 µg/mL (≈ 0.503 µM); with M. kansasii (ATCC 12478), 0.0005 µg/mL; in the assay on M. xenopi (ATCC 19250) it was 0.008 µg/mL. For the same compound, the MIC in the assay with M. avium (ATCC 25291) came to 0.25 µg/mL.
For `CO[C@H]1/C=C/O[C@@]2(C)Oc3c(C)c(O)c4c(c3C2=O)C2=NC3(CCN(CC(C)C)CC3)NC2=C(NC(=O)/C(C)=C\C=C\[C@H](C)[C@H](O)[C@@H](C)[C@@H](O)[C@@H](C)[C@H](OC(=O)N2CCN(CC3CCCCC3)CC2)[C@@H]1C)C4=O` [Compound 9], the MIC was determined as 0.5 µg/mL (≈ 0.493 µM) in assay [1]; 0.5 µg/mL in assay [2]; 0.06 µg/mL in assay [3]; 0.125 µg/mL (≈ 0.123 µM) in assay [4]; 0.0002 µg/mL in the assay on M. kansasii (ATCC 12478); 0.016 µg/mL in the assay on M. xenopi (ATCC 19250). The minimum inhibitory concentration (MIC) with M. avium (ATCC 25291) came out at 0.125 µg/mL.
For the compound `CO[C@H]1/C=C/O[C@@]2(C)Oc3c(C)c(O)c4c(c3C2=O)C2=NC3(CCN(CC(C)C)CC3)NC2=C(NC(=O)/C(C)=C\C=C\[C@H](C)[C@H](O)[C@@H](C)[C@@H](O)[C@@H](C)[C@H](OC(=O)N2CCN(C3CCCCC3)CC2)[C@@H]1C)C4=O` [Compound 10], the minimum inhibitory concentration (MIC) came out at 0.25 µg/mL (≈ 0.25 µM) in assay [1]; 0.06 µg/mL in assay [2]; 0.06 µg/mL in assay [3]; 0.06 µg/mL (≈ 0.06 µM) in assay [4]; 0.0002 µg/mL in the assay with M. kansasii (ATCC 12478); 0.002 µg/mL in the assay with M. xenopi (ATCC 19250). In addition, the minimal inhibitory concentration (MIC) with M. avium (ATCC 25291) amounted to 0.06 µg/mL.
On to `CO[C@H]1/C=C/O[C@@]2(C)Oc3c(C)c(O)c4c(c3C2=O)C2=NC3(CCN(CC(C)C)CC3)NC2=C(NC(=O)/C(C)=C\C=C\[C@H](C)[C@H](O)[C@@H](C)[C@@H](O)[C@@H](C)[C@H](OC(=O)NC2CCN(Cc3ccccc3)CC2)[C@@H]1C)C4=O` [Compound 14], for which the MIC in assay [1] turned out to be 0.125 µg/mL (≈ 0.122 µM); in assay [2] it was 0.004 µg/mL; in assay [3], 0.25 µg/mL; in assay [4], 0.25 µg/mL (≈ 0.245 µM); in the assay on M. kansasii (ATCC 12478), 0.0005 µg/mL; in the assay with M. xenopi (ATCC 19250) it was 0.008 µg/mL. Besides, the minimum inhibitory concentration (MIC) with M. avium (ATCC 25291) is 0.25 µg/mL.
